Reference: PMC7615501 (Journal of immunology (Baltimore, Md. : 1950), 2021)

Assays:
[1] = system: CD8+ T cell clone 6C5; experiment: Activation of clone 6C5 by peptide-pulsed T2 cells, MIP-1β ELISA; type: cell-based, human; settings: high purity (>95%) peptide preparations
[2] = system: CD8+ T cell clone 6C5; settings: earlier work; cited from earlier work
[3] = target: HLA-A*0201 (Homo sapiens, UniProt P04439, D140Y/D185E/D98H/E176V/E277Q/G131W/G231S/I119V/I121R/I166T/I218V/L300P/L318F/N151K/N90K/P208A/P217A/Q86G/Q94H/R138H/R169H/T345S); settings: earlier work; cited from earlier work

Substance | Functional response of clone 6C5, retest with high purity preparations [1] | Recognition by CD8+ T cell clone 6C5 [2] | Binding to HLA-A*0201 [3]
FMAYFGVSA | inert |  | 
LLSY(3-tBu)FGTPT |  | recognize | bound poorly to HLA-A*0201
LTAYMLLAI | inert |  | 
